Results reported in patent EP1267867B1, “USE OF PROSTANOID EP4 RECEPTOR ANTAGONISTS FOR THE TREATMENT OF HEADACHE AND ASSAYS FOR SUCH ANTAGONISTS” (ASTERAND UK LIMITED, priority 2000, dated 2001).

How the values were obtained:
EP3 = target: T1, EP3 (Homo sapiens, UniProt P43115); conditions: cited from earlier work
T1 sequence (P43115 1-390): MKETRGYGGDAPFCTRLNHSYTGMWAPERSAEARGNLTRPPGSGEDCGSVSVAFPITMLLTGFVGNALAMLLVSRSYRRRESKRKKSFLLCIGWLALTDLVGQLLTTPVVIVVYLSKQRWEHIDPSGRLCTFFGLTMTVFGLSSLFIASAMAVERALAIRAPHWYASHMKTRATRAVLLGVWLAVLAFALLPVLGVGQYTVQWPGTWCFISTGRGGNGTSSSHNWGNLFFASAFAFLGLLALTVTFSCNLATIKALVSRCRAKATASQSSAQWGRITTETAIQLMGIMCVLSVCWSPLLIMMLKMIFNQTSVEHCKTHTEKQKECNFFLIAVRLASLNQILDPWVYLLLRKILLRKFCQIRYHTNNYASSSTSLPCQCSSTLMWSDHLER

EP1 = target: T2, EP1 (Homo sapiens, UniProt P34995); conditions: cited from earlier work
T2 sequence (P34995 1-402): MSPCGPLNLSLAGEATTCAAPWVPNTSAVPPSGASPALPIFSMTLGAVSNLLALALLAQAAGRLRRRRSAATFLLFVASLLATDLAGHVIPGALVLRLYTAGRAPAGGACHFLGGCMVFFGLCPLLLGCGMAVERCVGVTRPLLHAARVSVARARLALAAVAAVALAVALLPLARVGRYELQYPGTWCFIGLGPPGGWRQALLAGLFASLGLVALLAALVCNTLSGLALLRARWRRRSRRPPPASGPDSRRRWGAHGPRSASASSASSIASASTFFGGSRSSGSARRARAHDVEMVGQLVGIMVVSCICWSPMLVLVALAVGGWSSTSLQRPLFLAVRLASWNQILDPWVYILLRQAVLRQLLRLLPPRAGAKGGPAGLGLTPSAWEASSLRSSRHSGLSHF

EP2 = EP2 (Homo sapiens, UniProt P43116); conditions: cited from earlier work
EP4 receptors = target: T3, EP4 receptors (Sus scrofa, UniProt I3LLK4); conditions: antagonism of PGE2-induced relaxation of piglet saphenous vein through blockade of EP4 receptors; cited from earlier work
T3 construct: providing a natural source of the receptors, such as piglet saphenous vein; host or cells: piglet saphenous vein rings (tissue, endogenous receptor)

EP4 receptor = target: T4, EP4 receptor (Homo sapiens, UniProt P35408); test: Antagonism of PGE2-mediated relaxation of phenylephrine pre-contracted middle cerebral artery rings; type: cell-based; conditions: 10 mM AH23848, 45 mins preincubation, P=0.004, 2 tailed T-Test
T4 construct: Intact rings of this cerebral artery, 2-3mm in length, were set up under isometric conditions; from tissue; host or cells: human middle cerebral artery rings (one donor)
Procedure: (§1) Sections of cerebral artery were removed from different regions of preparations of human cerebral vasculature containing an intact circle of Willis. Intact rings of this cerebral artery, 2-3mm in length, were set up under isometric conditions in 10 ml organ baths under an initial tension of 1g. All tissues were maintained at 37°C and gassed constantly with 95% O2 / 5% CO2. Following a 90 min equilibration period all tissues were challenged with phenylephrine (1 µM), to determine tissue viability. Once a stable contraction had been obtained, tissues were exposed to a range of prostanoid receptor agonists, in the absence or presence of receptor antagonists, to determine the functional role of prostanoid receptors in maintaining arterial tone.
To test the effect of the EP4 receptor antagonist AH23848, cerebral rings were preincubated for 45 mins with 10 mM AH23848.

[1] = system: human cerebral artery rings; test: Prostanoid agonist effects on isolated human cerebral artery rings (organ bath, isometric tension); type: cell-based; conditions: for effect on human cerebral artery rings contracted with phenylephrine: smaller diameter vessels, phenylephrine (1 µM), GR32191 (1 µM) present to block TP-receptors, Figures 3-5
Procedure: as §1

coronary artery = test: Effect of PGE2 on pre-contracted coronary artery rings; type: cell-based, human; conditions: for relaxation of coronary artery: tone induced with phenylephrine (1-10µM) or endothelin-1, n=3 donors, cicaprost 0.1-1µM
Procedure: (§2) Rings (2-4mm internal diameter) were prepared from sections of pulmonary or coronary artery (n=3 each). They were mounted in organ baths under isometric conditions, in gassed Krebs solution (containing indomethacin) at 37°C, and 1-1.5g initial tone.
(§3) After at least 60min equilibration, tone was induced with U-46619 (10-100nM) in pulmonary artery or either phenylephrine (1-10µM) or endothelin-1 (-7M) in coronary artery.

pulmonary artery = test: Effect of PGE2 on pre-contracted pulmonary artery rings; type: cell-based, human; conditions: tone induced with U-46619 (10-100nM), n=3 donors; cicaprost 0.1-1µM
Procedure: as §2, §3

Sequence of EP2 (P43116 whole entry): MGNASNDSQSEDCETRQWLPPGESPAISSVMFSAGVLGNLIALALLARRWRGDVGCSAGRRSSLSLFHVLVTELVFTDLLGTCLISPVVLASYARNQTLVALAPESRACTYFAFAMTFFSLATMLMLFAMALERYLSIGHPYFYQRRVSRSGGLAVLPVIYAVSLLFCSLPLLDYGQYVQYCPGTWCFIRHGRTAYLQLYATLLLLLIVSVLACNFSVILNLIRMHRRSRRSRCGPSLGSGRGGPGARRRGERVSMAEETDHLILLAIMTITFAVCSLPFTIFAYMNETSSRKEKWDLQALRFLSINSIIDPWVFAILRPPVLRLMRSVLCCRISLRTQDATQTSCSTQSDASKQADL
T3 sequence (I3LLK4 1-489): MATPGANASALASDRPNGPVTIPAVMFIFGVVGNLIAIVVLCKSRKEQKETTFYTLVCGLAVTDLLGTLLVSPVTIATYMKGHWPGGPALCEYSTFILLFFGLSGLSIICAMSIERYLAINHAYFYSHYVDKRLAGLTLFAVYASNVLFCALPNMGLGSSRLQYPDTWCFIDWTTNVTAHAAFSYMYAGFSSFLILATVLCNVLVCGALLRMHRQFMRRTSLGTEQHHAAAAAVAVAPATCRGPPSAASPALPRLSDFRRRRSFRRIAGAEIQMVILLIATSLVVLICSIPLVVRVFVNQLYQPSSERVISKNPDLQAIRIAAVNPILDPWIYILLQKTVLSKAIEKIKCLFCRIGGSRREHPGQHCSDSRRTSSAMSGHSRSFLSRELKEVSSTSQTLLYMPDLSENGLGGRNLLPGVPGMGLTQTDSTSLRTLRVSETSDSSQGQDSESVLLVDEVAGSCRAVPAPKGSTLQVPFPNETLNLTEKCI
T4 sequence (P35408 whole entry): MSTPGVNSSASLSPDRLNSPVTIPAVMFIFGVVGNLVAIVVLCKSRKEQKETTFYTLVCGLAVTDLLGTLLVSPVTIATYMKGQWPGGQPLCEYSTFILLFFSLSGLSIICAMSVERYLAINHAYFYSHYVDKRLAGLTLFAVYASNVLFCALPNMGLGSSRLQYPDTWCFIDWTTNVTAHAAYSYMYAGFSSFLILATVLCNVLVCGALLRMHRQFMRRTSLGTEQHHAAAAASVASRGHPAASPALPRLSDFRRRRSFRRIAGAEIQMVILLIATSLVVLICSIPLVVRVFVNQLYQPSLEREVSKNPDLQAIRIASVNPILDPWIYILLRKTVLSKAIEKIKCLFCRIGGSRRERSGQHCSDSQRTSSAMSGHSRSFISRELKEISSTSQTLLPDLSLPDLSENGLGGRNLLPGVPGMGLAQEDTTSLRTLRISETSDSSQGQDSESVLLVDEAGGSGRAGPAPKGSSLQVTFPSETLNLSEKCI

Structure (SMILES): O=C(O)CCC/C=C\C[C@H]1[C@@H](OCc2ccc(-c3ccccc3)cc2)CC(=O)[C@@H]1N1CCOCC1 [AH22921]
- effect on EP receptor subtype EP3 (EP3): no effect
- effect on EP receptor subtype EP1 (EP1): no effect
- effect on EP receptor subtype EP2 (EP2): no effect
- pA2 (EP4 receptors): 5.3

Structure (SMILES): O=C(O)CCC=CCCC1C(OCc2ccc(-c3ccccc3)cc2)CC(=O)C1N1CCOCC1 (centres unmarked) [AH23848]
- effect on EP receptor subtype EP3 (EP3): no effect
- shift in the PGE2-mediated relaxation (EP4 receptor): significant rightward shift
- effect on EP receptor subtype EP1 (EP1): no effect
- effect on EP receptor subtype EP2 (EP2): no effect
- pA2 (EP4 receptors): 5.4

Structure (SMILES): CC#CCC(C)[C@H](O)/C=C/[C@@H]1[C@H]2C/C(=C/CCCC(=O)O)C[C@H]2C[C@H]1O (some centres unmarked) [Iloprost]
- effect on human cerebral artery rings contracted with phenylephrine [1]: induced relaxation

Structure (SMILES): CCCCC[C@H](O)/C=C/[C@H]1C(=O)C[C@H](O)[C@@H]1C/C=C\CCCC(=O)O [PGD2]
- effect on human cerebral artery rings contracted with phenylephrine [1]: without effect

Structure (SMILES): CCCCC[C@H](O)/C=C/[C@H]1[C@H](O)CC(=O)[C@@H]1C/C=C\CCCC(=O)O [PGE2, prostaglandin E2]
- relaxation of cerebral artery rings pre-contracted with 5-HT ([1]; 5-HT (300nM and 1µM), Figure 2B, 2C): maximal or near maximal relaxation
- relaxation of cerebral artery rings pre-contracted with U46619 ([1]; U46619 (100nM), Figure 2A): maximal or near maximal relaxation
- concentration at which maximum relaxation occurs ([1]; cerebral blood vessel pre-contracted with phenylephrine, Figure 1): below 10^-6 M
- effect on larger vessels ([1]; human cerebral artery, internal diameter > 1mm): concentration-related contraction
- effect on smaller vessels ([1]; pre-contracted human cerebral blood vessels, internal diameter < 1mm): potent concentration-related relaxation
- contraction of coronary artery (coronary artery; pre-contracted coronary artery, likely due to activation of EP3 receptors): A small contraction
- relaxation of coronary artery (coronary artery): did not cause relaxation
- relaxation of pulmonary artery (pulmonary artery): did not cause relaxation

Structure (SMILES): CCCCC[C@H](O)/C=C/[C@@H]1[C@@H](C/C=C\CCCC(=O)O)[C@@H](O)C[C@H]1O [PGF2α]
- effect on human cerebral artery rings contracted with phenylephrine [1]: without effect

Structure (SMILES): CCC#CC[C@H](C)[C@H](O)C#C[C@@H]1[C@H]2C/C(=C/COCC(=O)O)C[C@H]2C[C@H]1O [cicaprost]
- effect on human cerebral artery rings contracted with phenylephrine [1]: induced relaxation
- relaxation of coronary artery (coronary artery): induced a relaxation in all preparations
- relaxation of pulmonary artery (pulmonary artery): induced a relaxation in all preparations
